Measured values: patent EP1660440B1, “ACYLOXYALKYL CARBAMATE PRODRUGS, METHODS OF SYNTHESIS AND USE” (priority 2003, dated 2005)

Key:
[1] = human, in vivo; cited from earlier work
in vitro [2] = details: human
Procedure: For stability studies, prodrug (5 µM) was incubated in Caco-2 homogenate S9 fraction (0.5 mg protein per mL) for 60 min at 37°C. Concentrations of intact prodrug and released baclofen were determined at zero time and 60 minutes using LC/MS/MS.

Pancreatin stability = assay type: in vitro ADME, porcine; details: pig, 5 µM, pH 7.5, 37 °C, after 60 min; for metabolised at 1 h, 5 µM: pancreatin, pH 7.5, 1 % (w/v) pancreatin, read-out: % of Baclofen Released; for remaining at 1 h, 5 µM: 1 % (w/v) pancreatin, read-out: % of Prodrug Remaining
Procedure: Pancreatin Stability: Stability studies were conducted by incubating prodrug (5 µM) with 1 % (w/v) pancreatin (Sigma, P-1625, from porcine pancreas) in 0.025 M Tris buffer containing 0.5 M NaCl (pH 7.5) at 37 °C for 60 min. The reaction was stopped by addition of 2 volumes of methanol. After centrifugation at 14,000 rpm for 10 min, the supernatant was removed and analyzed by LC/MS/MS.

in vitro [3] = details: human, Caco-2
Procedure: (§1) For example, cellular permeability may be evaluated by examining the flux of a prodrug across a cultured polarized cell monolayer (e.g., Caco-2 cells). Caco-2 cells obtained from continuous culture (passage less than 28) were seeded at high density onto Transwell polycarbonate filters. Cells were maintained with DMEM / 10% fetal calf serum + 0.1 mM nonessential amino acids + 2 mM L-Gln, 5% CO2/ / 95% O2, 37°C until the day of the experiment. Permeability studies were conducted at pH 6.5 apically (in 50 mM MES buffer containing 1 mM CaCl2, 1mM MgCl2, 150 mM NaCl, 3 mM KCl, 1 mM NaH2PO4, 5 mM glucose) and pH 7.4 basolaterally (in Hanks' balanced salt solution containing 10 mM HEPES) in the presence of efflux pump inhibitors (250 µM MK-571, 250 µM Verapamil, 1 mM Ofloxacin). Inserts were placed in 12 or 24 well plates containing buffer and incubated for 30 min at 37C°. Prodrug (200 µM) was added to the apical or basolateral compartment (donor) and concentrations of prodrug and/or released parent drug in the opposite compartment (receiver) were determined at intervals over 1 hour using LC/MS/MS. Values of apparent permeability (Papp) were calculated using the equation: Papp = Vr (dC/dt)//(ACo) [formula]
(§2) Here Vr is the volume of the receiver compartment in mL; dC/dt is the total flux ofprodrug and parent drug (µM/s), determined from the slope of the plot of concentration in the receiver compartment versus time; Co is the initial concentration of prodrug in µM; A is the surface area of the membrane in cm^2.

in vitro [4] = details: human; for remaining at 1 h, 2 µM: liver s9, % of Prodrug Remaining
Procedure: (§3) The stabilities of prodrugs were evaluated in one or more in vitro systems using a variety of tissue preparations following methods known in the art. The chemical stability of prodrugs in aqueous buffers at pH's of 2.0, 7.4 and 8.0 were also measured. […] Each preparation was incubated with test compound at 37°C for one hour. Aliquots (50 µL) were removed at 0, 30, and 60 min and quenched with 0.1 % trifluoroacetic acid in acetonitrile.

physchem = details: aqueous buffer
Procedure: as §3

in vitro [5] = details: rat; for remaining at 1 h, 2 µM: liver s9, % of Prodrug Remaining
Procedure: as §3

in vitro [6] = details: rat, plasma
Procedure: as §3

in vitro [7] = details: human, plasma
Procedure: as §3

Caco-2 cells = details: human, Caco-2, 200 uM
Procedure: as §1, §2

[8] = Caco-2 cellular permeability of prodrugs; details: human
Procedure: as §1, §2

[9] = assay type: in vivo; details: cynomolgus monkeys, intravenous bolus, 1.2 mg/kg
Procedure: R-Baclofen hydrochloride salt was administered to four male cynomolgus monkeys as an aqueous solution by intravenous bolus injection into the saphenous vein at a dose of 1.2 mg/kg. Blood samples were obtained from all animals at intervals over 24 hours post-dosing. Blood was processed immediately for plasma at 4°C. All plasma samples were subsequently analyzed for R-baclofen using the LC/MS/MS assay described above. The mean R-baclofen exposure AUCinf = 3.6 h.µg/mL.

Row | SMILES | metabolised at 1 h, 5 µM (in vitro [2]; s9) | metabolised at 1 h, 5 µM (Pancreatin stability) | remaining at 1 h, 5 µM (Pancreatin stability) | Papp A→B at 200 µM (in vitro [3]) | Papp B→A at 200 µM (in vitro [3]) | metabolised at 1 h, 2 µM (in vitro [4]; s9) | degraded at 1 h (physchem; pH 2) | degraded at 1 h (physchem; pH 7.4) | degraded at 1 h (physchem; pH 8) | metabolised at 1 h, 2 µM (in vitro [5]; s9) | metabolised at 1 h, 2 µM (in vitro [6]) | metabolised at 1 h, 2 µM (in vitro [7]) | also measured
1 | NCC(CC(=O)O)c1ccc(Cl)cc1 (racemic) [Baclofen, (±)-4-Amino-3-(4-chlorophenyl)butanoic acid] | – | – | – | – | – | – | – | – | – | – | – | – | elimination half-life [1]: 3 to 4 h
2 | CCCC(=O)OCOC(=O)NC[C@H](CC(=O)O)c1ccc(Cl)cc1 [(16), Sodium 4-[(Butanoyloxymethoxy)carbonylamino]-(3R)-(4-chlorophenyl)-butanoate] | 100% | 84% | 1% | 6.1 ×10⁻⁶ cm/s | 1.2 ×10⁻⁶ cm/s | 100% | 0% | 0% | 0% | 100% | 40% | 20% | –
3 | CC(C)C(=O)OCOC(=O)NC[C@H](CC(=O)O)c1ccc(Cl)cc1 [(18), Sodium 4-[(Isobutanoyloxymethoxy)carbonylamino]-(3R)-(4-chlorophenyl)-butanoate] | 100% | 91% | 2% | 6.4 ×10⁻⁶ cm/s | 5.6 ×10⁻⁶ cm/s | 100% | 0% | 0% | 0% | 100% | 60% | 27% | –
4 | CCCC(=O)OC(OC(=O)NC[C@H](CC(=O)O)c1ccc(Cl)cc1)C(C)C (some centres unmarked) [(27)] | – | 9% | 71% | – | – | – | – | – | – | – | 88% | – | Ratio A-BB-A (Caco-2 cells): 6.9; metabolised at 1 h, 5 µM (in vitro [2]; caco-2 homogenate s9): 67%; metabolised at 1 h, 2 µM (in vitro [4]; liver s9): 79%; remaining at 1 h, 2 µM (in vitro [4]): 8%; degraded at 1 h (physchem; pH 2, % of Baclofen Released): 0%; degraded at 1 h (physchem; pH 7.4, % of Baclofen Released): 0%; degraded at 1 h (physchem; pH 8, % of Baclofen Released): 1%; metabolised at 1 h, 2 µM (in vitro [5]; liver s9): 89%; remaining at 1 h, 2 µM (in vitro [5]): 0%; metabolised at 1 h, 2 µM (in vitro [7]; % of Baclofen Released): 12%; Papp A→B at 200 µM [8]: 65 ×10⁻⁶ cm/s; Papp B→A at 200 µM [8]: 9.4 ×10⁻⁶ cm/s
5 | CC(=O)OC(C)OC(=O)NC[C@H](CC(=O)O)c1ccc(Cl)cc1 (stereo partly drawn) [(30), Sodium 4-[(1-Acetoxyethoy)carbonylamino]-(3R)-(4-chlorophenyl)-butanoate] | 70% | 9% | 90% | 8.7 ×10⁻⁶ cm/s | 2.3 ×10⁻⁶ cm/s | 87% | 0% | 1% | 3% | 85% | 42% | 8% | –
6 | CC(C)C(OC(=O)NC[C@H](CC(=O)O)c1ccc(Cl)cc1)OC(=O)C(C)(C)C (stereo partly drawn) [(43), Sodium 4-[(1-Pivaloyloxyisobutoxy)carbonylamino]-(3R)-(4-chlophenyl)-butanoate] | – | 4% | 82% | – | – | – | – | – | – | – | 29% | – | Ratio A-BB-A (Caco-2 cells): 2.3; metabolised at 1 h, 5 µM (in vitro [2]; caco-2 homogenate s9): 49%; metabolised at 1 h, 2 µM (in vitro [4]; liver s9): 39%; remaining at 1 h, 2 µM (in vitro [4]): 61%; degraded at 1 h (physchem; pH 2, % of Baclofen Released): 0%; degraded at 1 h (physchem; pH 7.4, % of Baclofen Released): 0%; degraded at 1 h (physchem; pH 8, % of Baclofen Released): 0%; metabolised at 1 h, 2 µM (in vitro [5]; liver s9): 97%; remaining at 1 h, 2 µM (in vitro [5]): 3%; metabolised at 1 h, 2 µM (in vitro [7]; % of Baclofen Released): 2%; Papp A→B at 200 µM [8]: 42 ×10⁻⁶ cm/s; Papp B→A at 200 µM [8]: 18 ×10⁻⁶ cm/s
7 | Cl.NC[C@H](CC(=O)O)c1ccc(Cl)cc1 [R-Baclofen hydrochloride salt] | – | – | – | – | – | – | – | – | – | – | – | – | mean R-baclofen exposure AUCinf [9]: 3600 ng·h/mL
